Experimental data from patent US20250161299A1, “ORAL PCLX-001 IN THE TREATMENT OF HUMAN CANCER” (PACYLEX PHARMACEUTICALS INC., priority 2022, published 2025).
Entries after “also recorded” stand apart in the source; their conditions may differ.

Key:
[1] = Phase I trial plasma pharmacokinetics, two-compartment model (PK Solver 2.0); format: in vivo; settings: human, oral, 20 mg
Description: A different pharmacokinetic modeling program was used in the publication PK Solver 2.0 freeware (https://www.boomer.org/boomer/software/pksolver.zip; accessed 26 Nov. 2021) was used to determine the single dose pharmacokinetic parameters using a two-compartment model. […] As noted above, non-compartmental pharmacokinetic analysis was performed using Phoenix WinNonlin 8.3 using trapezoidal rule and linear up log down methodology. WinNonlin was allowed to pick optimal terminal phases.
Pharmacokinetic analysis was conducted as described above. […] These parameters are all supportive of a single daily oral dosing schedule for PCLX-001.

[2] = PK and maximally tolerated dose, daily oral administration, mouse; format: in vivo
Description: The allometric scaling is based on toxicity, and the toxicity is that which establishes the Maximally Tolerated Dose (MTD) in animal studies. In mice, one toxicity study established the MTD to be 35 mg/kg. […] It was not expected that, as shown herein, doses markedly lower than 180 mg daily in humans would have anticancer effects.
[…]. Possible explanations for this finding include hysteresis loops (7), and flip-flop pharmacokinetics (7).
Allometric scaling is a means by which PK results from animal studies can be used to predict human drug exposure for a range of drug doses. In this case, allometric scaling was performed using representative values from the PK studies with daily oral PCLX-001 administration for 14 or 28 days in non-human species. These inputs were analyzed with www.truedose.app to predict the Maximally Tolerated Dose we would see in this phase one clinical trial (FIG. 2). […]

[3] = target: hERG (Homo sapiens, UniProt Q12809); test: Preclinical hERG interaction testing
[4] = Animal (GLP) non-clinical safety testing; format: in vivo
Description: PCLX-001 (FIG. 1) is a potent, small molecule inhibitor of human NMT1 and NMT2 proteins.

[5] = test system: DLBCL / soft tissue sarcoma in patients; test: Phase I trial efficacy assessment (CT/PET imaging, Lugano criteria, RECIST); format: in vivo, human
Description: Patients 1 and 2 had baseline cross sectional and PET imaging, and patient 3 had baseline cross sectional imaging. Protocol defined imaging was CT every 2 cycles and PET every 6 cycles or as clinically indicated. Evaluation of response was by the Lugano classification criteria for the evaluation of non-Hodgkin lymphoma, and […] for the evaluation of soft tumors. Computed tomography was performed on patient 2 on two occasions, immediately prior to treatment (pre-treatment scan obtained Oct. 29, 2021) and after two 28-day cycles of oral PCLX-001 at a daily dose of 20 mg by mouth (post-treatment scan obtained Dec. 30, 2021). Both scans were done on the same scanner using the same techniques including the use of intravenous contrast dye. The three pairs of pre and post treatment scans are of the same cross section of the patient, in order to identify a clinical trial target lesion of a liver metastasis in the subcapsular region of segment five of the liver. […] FIG. 2A-4F.

[6] = test system: Brain cultured human cancer cells; settings: second panel, mean among sensitive cell lines, read-out: IC50 mean +/− SD; cited from earlier work
[7] = test system: Leukemia cultured human cancer cells; settings: mean among sensitive cell lines, cited from earlier work
[8] = test system: Sarcoma cultured human cancer cells; settings: second panel, mean among sensitive cell lines, read-out: IC50 mean +/− SD; cited from earlier work
[9] = test system: Stomach cultured human cancer cells; settings: second panel, mean among sensitive cell lines, read-out: IC50 mean +/− SD; cited from earlier work
[10] = test system: cancer cells (hematologic, lymphoma and solid cancer cell lines); settings: tissue culture; hematological and solid cancer cell lines; cited from earlier work
[11] = test system: kinases (KINOMEscan); settings: KINOMEscan (Fremont, CA, USA); cited from earlier work
[12] = in vivo; settings: rat, plasma, po
[13] = in vivo; settings: dog, plasma, po
[14] = PK and maximally tolerated dose, daily oral administration, rat
[15] = Table 1B third line, Patient 115-002-001, Day 15 as printed

Chain of hERG (Q12809 whole entry): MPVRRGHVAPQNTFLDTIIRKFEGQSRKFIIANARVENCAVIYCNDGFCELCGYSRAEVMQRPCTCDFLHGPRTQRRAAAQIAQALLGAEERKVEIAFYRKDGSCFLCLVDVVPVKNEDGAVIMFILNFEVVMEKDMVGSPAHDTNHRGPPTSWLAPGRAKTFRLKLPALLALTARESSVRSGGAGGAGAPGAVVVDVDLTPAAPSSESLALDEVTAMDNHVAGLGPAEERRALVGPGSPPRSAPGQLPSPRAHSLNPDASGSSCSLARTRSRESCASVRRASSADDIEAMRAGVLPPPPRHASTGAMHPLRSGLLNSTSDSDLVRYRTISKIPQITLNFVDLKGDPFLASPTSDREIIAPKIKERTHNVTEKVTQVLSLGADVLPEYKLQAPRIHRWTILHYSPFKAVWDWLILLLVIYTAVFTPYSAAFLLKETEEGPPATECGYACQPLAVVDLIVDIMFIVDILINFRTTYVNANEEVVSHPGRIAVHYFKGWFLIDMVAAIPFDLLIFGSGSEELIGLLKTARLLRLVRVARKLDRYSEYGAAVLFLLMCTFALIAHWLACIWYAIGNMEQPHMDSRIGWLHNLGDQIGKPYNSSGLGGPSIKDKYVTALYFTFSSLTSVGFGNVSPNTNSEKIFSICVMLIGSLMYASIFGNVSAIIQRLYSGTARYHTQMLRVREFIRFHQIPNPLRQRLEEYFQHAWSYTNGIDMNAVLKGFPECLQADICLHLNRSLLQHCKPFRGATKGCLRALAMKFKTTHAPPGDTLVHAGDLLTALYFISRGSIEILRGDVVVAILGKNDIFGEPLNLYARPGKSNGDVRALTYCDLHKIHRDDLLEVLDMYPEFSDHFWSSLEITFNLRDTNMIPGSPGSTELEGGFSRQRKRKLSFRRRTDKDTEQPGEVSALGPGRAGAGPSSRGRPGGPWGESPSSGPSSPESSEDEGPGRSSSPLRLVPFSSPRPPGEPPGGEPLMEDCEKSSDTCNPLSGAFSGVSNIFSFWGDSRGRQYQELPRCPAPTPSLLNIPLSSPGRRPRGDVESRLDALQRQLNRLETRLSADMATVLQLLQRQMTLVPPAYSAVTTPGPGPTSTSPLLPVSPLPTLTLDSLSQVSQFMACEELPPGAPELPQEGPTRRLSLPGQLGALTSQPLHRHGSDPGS

Question: For `Cc1c(NS(=O)(=O)c2c(Cl)cc(-c3ccnc(N4CCNCC4)c3)cc2Cl)c(CC(C)C)nn1C` [PCLX-001, 2,6-dichloro-N-(3-isobutyl-1,5-dimethyl-1H-pyrazol-4-yl)-4-(2-(piperazin-1-yl)pyridin-4-yl)benzene sulfonamide], which AUC(0-inf) ([1]; Table 1B fourth line, Patient 115-002-001, Day 15) is on record?
Answer: 2640 ng·h/mL

Question: And the AUC(0-inf) [1, 15]?
Answer: 2360 ng·h/mL

Question: And the AUC(0-t) [1, 15]?
Answer: 1700 ng·h/mL

Question: What about the Cmax [1, 15] of the same molecule?
Answer: 278 ng/mL

Question: And the half-life [1, 15]?
Answer: 16.4 h

Question: And the “Maximally Tolerated Dose daily oral administration” value [2]?
Answer: 35 mg/kg

Question: What about the Cmax ([2]; in vivo, po) of the same molecule?
Answer: 46000 ng/mL

Question: What about the half-life ([2]; in vivo, po) of the same molecule?
Answer: 1.6 h

Question: What about the hERG interaction [3] of the same molecule?
Answer: no significant hERG interaction

Question: And the cardiac conduction [4]?
Answer: no cardiac conduction issues

Question: What about the “disease response (Lugano criteria, computed tomography day 28)” value ([5]; Patient 1, refractory relapsed DLBCL, 20 mg oral daily) of the same molecule?
Answer: disease progression; also recorded: progression of the volume of lymphoma

Question: And the “response in lymph nodes” value ([5]; Patient 2, DLBCL, 20 mg oral daily)?
Answer: progressive disease in lymph nodes

Question: And the “response of hepatic metastatic disease on CT” value ([5]; Patient 2, DLBCL, 20 mg oral daily, about two months)?
Answer: marked reduction of volume of hepatic metastatic disease; also recorded: marked tumor response in hepatic metastases; also recorded: marked tumor regression; also recorded: regression of a malignant lesion in the liver

Question: What about the response assessment scans ([5]; Patient 3, leiomyosarcoma, after two 28 day cycles) of the same molecule?
Answer: progressive disease

Question: And the IC50 [6]?
Answer: 153 ± 63.5 nM

Question: What about the EC50 ([7]; first panel, read-out: EC50 mean +/− SD) of the same molecule?
Answer: 97.9 ± 81.3 nM

Question: And the IC50 ([7]; second panel, read-out: IC50 mean +/− SD)?
Answer: 189 ± 87.8 nM

Question: What about the IC50 [8] of the same molecule?
Answer: 198 ± 134 nM

Question: What about the IC50 [9] of the same molecule?
Answer: 120 ± 48.2 nM

Question: What about the “inhibition of cancer cell growth in vitro” value [10] of the same molecule?
Answer: inhibition of cell growth; also recorded: markedly inhibited

Question: And the “off target kinase inhibition” value [11]?
Answer: no significant off target kinase inhibition

Question: And the Cmax [12]?
Answer: 3110 ng/mL

Question: And the half-life [12]?
Answer: 1 h

Question: And the Cmax [13]?
Answer: 650 ng/mL

Question: And the half-life [13]?
Answer: 3.8 h

Question: And the “Maximally Tolerated Dose daily oral administration” value [14]?
Answer: 125 mg/kg
